SMILES strings stand for the structures.

What all share (assay type): binding
Assay [1] relates to triplex DNA (NP-1/DNA-3/NP-2). Kind of assay: Colorimetric triplex binder assay: aggregation of NP-1, NP-2 gold nanoparticles and free DNA-3. The settings on record: NP-1 and NP-2 1.5 nM each, DNA-3 150 nM, binder 5 μM, 10 mM PBS pH 7.0, NaCl 0.5 M, room temperature. The source says: This method utilizes the aggregation-induced, red-to-blue color change associated with 13 nm gold (Au) nanoparticles. The assay consists of two sets of gold nanoparticles NP-1 and NP-2, and a free strand of DNA, DNA-3. […] DNA-3 is complementary to NP-1 with a two base dangling end to prevent noncross-linked NP-1 aggregation. When NP-1 and DNA-3 are combined, they form nonaggregate linking duplexes on the nanoparticle surface. […] However, introduction of a strong triplex binding agent, benzo[e]pyridoindole (BePl), stabilizes triplex formation through Hoogsteen-type Py-PaPy triplet base hydrogen bonds and induces nanoparticle aggregation resulting in a concomitant red-to-blue color change due to a red-shifting and dampening of the nanoparticle plasmon resonance (Scheme 1).
This assay is prepared by combining NP-1 and NP-2 (1.5 nM each) in a 1:1 molar ratio in 10 mM PBS buffer (pH=7.0, NaCl 0.5 M) with DNA-3 (150 nM) and BePl (5 μM). […] This stabilization results in a dramatic decrease in absorbance at 520 nm accompanied by a red-to-blue color change. Note that in the absence of DNA-3, NP-1 and NP-2 cannot form aggregates even in the presence of a strong triplex binder (FIG. 1B).
To further investigate the importance of the triplex structure and rule out aggregation due to duplex formation between the nanoparticles, the assay as set out in Example I was performed in the presence of seven additional duplex binders 4′,6-diamidino-2-phenylindole (DAPI), ellipticine (EIPT), amsacrine (AMSA), daunorubicin (DNR), anthraquinone-2-carboxylic acid (AQ2A), ethidium bromide (EB), and 9-aminoaclidine (9-AA)(5 μM).
In general, assay methods that can detect drug candidates by the naked eye, without resorting to any instrumentation, are convenient, and for this reason, an assay that could screen for triplex binders would be of great interest. At present, there are no assays that provide this capability. […] The mixtures of NP-1, NP-2 and DNA-3 containing the control and duplex intercalators remain red in color.

In assay [2] the test system is unmodified duplex DNA (DNA-1: 5′-TAACAATAA-3′, DNA-2: 5′-TTATTGTTA-3′). Kind of assay: Melting temperature of solution-phase unmodified duplex DNA (no nanoparticles). The settings on record: for Tm, melting temperature of solution-phase unmodified DNA: 2 uM duplex DNA, 5 uM DNA binder, control (no DNA binder) 19.1; for relative trend in binding strength: from control experiments, Tm of solution-phase unmodified DNA (Table 2). The procedure: The assay is initiated by mixing NP-1 and NP-2 (1.5 nM each) in a 1:1 molar ratio in 10 mM PBS buffer (pH=7.0, NaCl 0.1 M. The melting temperatures of the nanoassemblies (NP-1 and NP-2) were then determined in the presence of 4′,6-diamidino-2-phenylindole (DAPI), ellipticine (EIPT), Amsacrine (AMSA), daunorubicin (DNR), anthraquinone-2-carboxylic acid (AQ2A), ethidium bromide (EB), and 9-aminoacridine (9-AA) (5 μM), respectively. UV melting profiles were measured by monitoring the absorbance at 520 nm at a scan rate of 0.5° C. min^−1. Melting temperatures were determined by taking the maxima of the first derivative of the melting curves. Control experiments were run by determining the melting temperatures of unmodified duplex DNA (DNA-1: 5′-TAACAATAA-3′, DNA-2: 5′-TTATTGTTA-3′) in the presence of all seven intercalators shown in Table 1.
To determine the Tm of the duplex DNA in the presence of DNA binders, 2 μM duplex DNA and 5 μM DNA binder were combined in 0.3 M NaCl 10 mM PBS. To determine the Tm of the triplex DNA in the presence of DNA binders, 1 μM of each strand and 6 μM of each DNA binder were combined in 0.5 M NaCl 10 mM PBS. UV-vis melting curves were measured on a CARRY 500 spectrophotometer equipped with a circulating bath. The melting process was monitored by measuring the change in extinction at 260 nm. The solutions were stirred continuously with a magnetic stir bar as the solution temperature was increased at a rate of 0.5° C./min. The first derivative generated from the melting curves was used to determine the Tm.

Assay [3] has as its system triplex DNA on chip surface. Kind of assay: Chip-based scanometric detection of triplex DNA binders (silver enhancement). The settings on record: varying salt concentrations (0.1 to 0.3 M NaCl), binder 5 μM, DNA-3 150 nM. How it is done:
For scanometric detection of duplex or triplex DNA binding molecules, Au nanoparticles (1 nM) and DNA binding molecules (5 μM) in 10 mM PBS buffer of varying NaCl concentrations were added to the microarray slide under hybridization wells (Nanosphere, Inc.). For detection of triplex binders, 150 nM DNA-3 was added. DNA hybridization proceeded for 30 min (for duplex DNA binders) or 1 h (for triplex DNA binders) in a humidity chamber. After hybridization, the slides were washed three times with 0.5 M NaNO3 containing 0.02% Tween 20. The arrays were dried using a benchtop spinner. Silver enhancement solution (Nanosphere, Inc.) was added for Au-NP signal amplification (1 mL total volume/array, 1.5-min development time for duplex DNA binding molecules and 3 min for triplex binding molecules). The reaction was terminated by washing the slides with NANOpure® water and spin-drying. Light-scattering images from the silver-enhanced chips were recorded using the high-resolution Verigene ID system (Nanosphere, Inc.).
Capture strands of synthetic oligonucleotides are patterned on a glass chip using a microarrayer. The DNA chip is then exposed to a solution containing three components: 1) complementary DNA (no nanoparticles), 2) DNA functionalized Au nanoparticles (DNA is non-complementary to the arrayed DNA) and 3) DNA binders, Scheme 4. The complementary solution-phase DNA, called DNA-3 in Scheme 2, hybridizes to the DNA on the chip surface and forms a duplex. The Au nanoparticle-bound DNA has the correct sequence to form a triplex with the surface bound duplex through sequence-specific Hoogsteen, or reverse Hoogsteen, base pairing. The triplex structure is relatively unstable at room temperature and will only form in the presence of triplex DNA binding molecules. The presence of the triplex DNA binding molecules increase the stability of the triplex, immobilizing the Au nanoparticles on the chip surface. The chip was then exposed to silver enhancement solution for further signal enhancement and then imaged using a Verigene ID scanner.
The assay was performed in the presence of two triplex binders, coralyn (CORA) and benzo[e]pyridoindole (BePI), seven duplex DNA binders, 4′,6-diamidino-2-phenylindole (DAPI), ellipticine (EIPT), amsacrine (AMSA), daunorubicin (DNR), anthraquinone-2-carboxylic acid (AQ2A), ethidium bromide (EB), and 9-aminoacridine (9-AA))., and one control (no DNA-3). Similar to the DNA duplex, the formation of the DNA triplex is a reversible process which is affected by both temperature and salt concentration. However, compared to the duplex, the stability of the triplex is much more sensitive to salt concentration. Therefore, to determine the relative binding strength of the triplex DNA binders, the assay was performed at varying salt concentrations, FIG. 7. At 0.3 M NaCl, both the strong (BePI) and weaker (CORA) triplex binders show signal.

For the compound `Nc1c2ccccc2nc2ccccc12` [9-AA, 9-aminoacridine], the “nanoparticle aggregation (decrease in absorbance at 520 nm, red-to-blue color change)” value in assay [1] is “no nanoparticle aggregation”. The “Tm, melting temperature of solution-phase unmodified DNA” value (“Tm, melting temperature” for short) in assay [2] came to 19.3 °C. Also, the scanometric signal entry in assay [3] is “No signal”.
The corresponding values for `O=C(O)c1ccc2c(c1)C(=O)c1ccccc1C2=O` [AQ2A, anthraquinone-2-carboxylic acid] are “no nanoparticle aggregation”, 19.4 °C and “No signal”.
Take `N=C(N)c1ccc(-c2cc3ccc(C(=N)N)cc3[nH]2)cc1` [DAPI, 4′,6-diamidino-2-phenylindole]: in assay [1], the “nanoparticle aggregation (decrease in absorbance at 520 nm, red-to-blue color change)” value is listed as “no nanoparticle aggregation”. Besides, in assay [2], the “Tm, melting temperature” value came out at 27.8 °C and the “relative trend in binding strength” value is listed as “DAPI>DNR>EB>other intercalators”. For the same compound, the scanometric signal entry in assay [3] is “No signal”.
As for `COc1cccc2c1C(=O)c1c(O)c3c(c(O)c1C2=O)C[C@@](O)(C(C)=O)C[C@@H]3O[C@H]1C[C@H](N)[C@H](O)[C@H](C)O1` [DNR, daunorubicin], in assay [1], the “nanoparticle aggregation (decrease in absorbance at 520 nm, red-to-blue color change)” value is “no nanoparticle aggregation”. In addition, in assay [2], the “Tm, melting temperature” value was found to be 25.4 °C and the “relative trend in binding strength” value is “DAPI>DNR>EB>other intercalators”. Also, the scanometric signal result in assay [3] is “No signal”.
`Cc1c2ccncc2c(C)c2c1[nH]c1ccccc12` [EIPT, ellipticine]: the “nanoparticle aggregation (decrease in absorbance at 520 nm, red-to-blue color change)” value in assay [1] was “no nanoparticle aggregation”. Further, the “Tm, melting temperature” value in assay [2] was 20.5 °C. Moreover, the scanometric signal result in assay [3] was “No signal”.

These data come from patent US20090221095A1, “Colorimetric Screening of DNA Binding/Intercalating Agents with Gold Nanoparticle Probes” (NORTHWESTERN UNIVERSITY, priority 2005, published 2009).
